Tested on: finished market barrows
Assay: Performance test to subjective fatigue (Example V)
Type: in vivo, pig
Settings: 30 mg/kg BW oral daily; performance test on day 7, 0.88 m/s
Experimental: Fourteen days prior to harvest, 20 finished market barrows (initial body weight 268 pounds) were randomly assigned to 1 of 2 treatments: 0 or 30 mg/kg body weight of nicotinamide riboside, both orally administered daily in 20 ml of Karo® Syrup. Ten days prior to harvest, pigs were restrained via a snare and treatments were administered. On day 7, barrows were subjected to a performance test where they were walked around a track at 0.88 m/s until subjective fatigue was achieved. Three days following the performance test, barrows were harvested and a portion of the semitendinosus muscle was collected within 45 minutes. These samples were analyzed for NAD+ content via HPLC methodology.

NC(=O)c1ccc[n+]([C@@H]2O[C@H](CO)[C@@H](O)[C@H]2O)c1 [Nicotinamide riboside, nicotinamide riboside]
Ran farther (distance) than unsupplemented barrows, numerically: 16%
Ran longer (time to subjective fatigue) than unsupplemented barrows, numerically: 19%
